The test system of the data set is brain dead adult beagle dogs. Particulars: dog, in vivo. How it is done:
Care and Use Committee. Adult beagle dogs (8-10 kg) of either sex (n=11) were initially anesthetized with propofol (10 mg/kg, intravenous or IV). After intubation, anesthesia was maintained with isoflurane at 1-2% on mechanical ventilation with FiO2 at 30%, ventilation rate of 12, which was adjusted as necessary to achieve a PaCO2 goal of 38-42 mmHg. A circulating water-warming pad was used to maintain normothermia throughout the experiment. The femoral artery was cannulated for arterial blood sampling and for measurement of arterial blood pressure and heart rate. The external jugular vein was also accessed and cannulated for administration of fluids and necessary medications.
Explosive brain death was induced in anesthetized adult Beagle dogs by inflating a balloon catheter (16 Fr. Foley) that was placed under the skull from a trephination burr hole. The balloon was inflated from 0-8 ml volume over about 5 minutes. which ultimately causes the brain stem to herniate through the foramen at the base of the skull. This causes rapid brain death that is characterized by the occurrence of a Cushing reflex, a negative apnea reflex, and fixed and dilated pupils. This methodology has previously been described by Mangino, et al.
The animals were assigned to either the control group (n=5) or the PEG-20k group (n=6) within the first hour. Both groups were treated in a standard fashion. […]

As for polyethylene glycol-20k [PEG-20k], the Hb level trend entry is “trended lower”.

Values taken from US20250366467A1, “METHODS FOR FLUID RESUSCITATION OF AN ORGAN DONOR” (VIRGINIA COMMONWEALTH UNIVERSITY, priority 2022, published 2025).
